Assay results taken from patent US12275688B2, “Crystalline solids of MEK inhibitor N-((R)-2,3-dihydroxypropoxy)-3,4-difluoro-2-(2-fluoro-4-iodo-phenylamino)-benzamide and uses thereof” (SpringWorks Therapeutics, Inc., priority 2021, dated 2025).

How the values were obtained:
Assay type in all cases: physicochemical
[1] = Water activity studies of hydrates at 23° C.; settings: water activities (aw) 0.6-0.99
Experimental: Water activity studies of the stable hydrated Forms VI and XIX were conducted to determine their relative thermodynamic stabilities. The studies were conducted at 23° C. in various water/ethanol mixtures to provide water activities (aw) from 0.6-0.99. The water activity range includes the approximate water activity of the current final isolation step of the mirdametinib manufacturing process. Saturated suspensions were prepared by stirring an excess of mirdametinib in the test solvents for 16 hours. The suspensions were filtered and transferred onto mixtures containing equivalent amounts of Form VI and Form XIX. […] The hydrates may be kinetically favored at higher water activities.

[2] = Desolvation/dehydration by heating in TGA pan to 100° C.; settings: 15° C./min from 25 to 100° C., 5 min. hold at 100° C., air-cooled to RT
Experimental: Desolvation/dehydration studies of certain forms were conducted in a TGA pan with loose lid at a heating rate of 15° C./min from 25 to 100° C. with a 5 min. hold at 100° C. Samples were air-cooled to RT on the TGA and analyzed by PXRD if crystalline. […] PXRD indicated Form I.

[3] = Drying of certain forms via vacuum oven at 45° C.; settings: overnight in vacuum oven at 45° C.; PXRD at about 70% ambient lab humidity
Experimental: Drying studies for certain forms were conducted overnight in a vacuum oven at 45° C. After drying, samples were equilibrated to RT for 10 min. and analyzed by PXRD at about 70% ambient lab humidity.

[4] = Toluene-spiked slurry studies of Form V in water:ethanol; settings: water:ethanol (1.1/0.5 v/v) overnight at RT
Source text: The process-relevant toluene solvate (Form V) was stirred in water:ethanol (1.1/0.5 v/v) overnight at RT with varying amounts of added toluene. The suspensions were filtered, and solids analyzed by PXRD.

[5] = Solid-state stability of crystal forms at ambient conditions; settings: ambient conditions
Source text: The following sections describe and summarize the physical properties of each of the crystal forms observed for mirdametinib.

Compound	Relative stability versus hydrate Forms VI and XIX [1]	Result of desolvation/dehydration by heating [2]	Form after vacuum oven drying (PXRD) [3]	Form after slurry (PXRD) ([4]; 0.5% added toluene (relative to mirdametinib weight))	Form after slurry (PXRD) ([4]; 1% and 2% added toluene)	Form after slurry (PXRD) ([4]; no added toluene)	Stable at ambient conditions for [5] [days]
O=C(NOC[C@H](O)CO)c1ccc(F)c(F)c1Nc1ccc(I)cc1F [Form IV, N—((R)-2,3-dihydroxypropoxy)-3,4-difluoro-2-(2-fluoro-4-iodo-phenylamino)-benzamide]	more stable at water activities (aw) 0.6-0.99 than hydrate Forms VI and XIX	–	–	–	–	–	–
O=C(NOC[C@H](O)CO)c1ccc(F)c(F)c1Nc1ccc(I)cc1F [Form V, N—((R)-2,3-dihydroxypropoxy)-3,4-difluoro-2-(2-fluoro-4-iodo-phenylamino)-benzamide]	–	melted and solidified in molten, amorphous state, possible decomposition	Remained unchanged	converted to mostly Form IV with some lesser amount of Form V	higher relative amounts of Form V were observed	converted to phase-pure Form IV	≥ 10
